Reference: ChEMBL document CHEMBL1146905, “Synthesis and evaluation of phenoxy acetic acid derivatives as [corrected] anti-mycobacterial agents” (2006)
Values after ≈ are worked out from the molar mass of the structure shown.

Experiments:
Format in all cases: functional
[1] = test system: Mycobacterium tuberculosis; assay: Antimycobacterial activity against INH-resistant Mycobacterium tuberculosis by agar dilution method
[2] = test system: Mycobacterium tuberculosis; assay: Antimycobacterial activity against INH-resistant Mycobacterium tuberculosis by agar dilution method above 6.25 ug/ml
[3] = test system: Mycobacterium tuberculosis; assay: Antimycobacterial activity against INH-resistant Mycobacterium tuberculosis by agar dilution method at 6.25 ug/ml

Row | SMILES | MIC [1] | Inhibition [2] | inhibition at 6.25 µg/mL [3]
1 | COc1cc(C2=NN(C(=O)c3ccc([N+](=O)[O-])cc3)C3CCCC23)c(C)cc1OCC(=O)O (stereo not drawn) | > 6.25 µg/mL | 30% | –
2 | COc1cc(C2=NN(C(=O)c3ccc([N+](=O)[O-])cc3)C(c3ccc(O)cc3)C2)c(C)cc1OCC(=O)O (stereo not drawn) | 6.25 µg/mL (≈ 12.4 µM) | 70% | –
3 | COc1cc(C2=NN(C(=O)c3ccccc3)C3CCCC23)c(C)cc1OCC(=O)O (stereo not drawn) | > 6.25 µg/mL | 42% | –
4 | COc1cc(C2=NN(C(=O)COc3ccc4ccccc4c3)C(Cc3ccccc3)C2)c(C)cc1OCC(=O)O (stereo not drawn) | 0.94 µg/mL (≈ 1.75 µM) | – | 90%
5 | COc1cc(C2=NN(C(=O)c3ccc([N+](=O)[O-])cc3)C(Cc3ccccc3)C2)c(C)cc1OCC(=O)O (stereo not drawn) | > 6.25 µg/mL | 50% | –
6 | COc1cc(C2=NN(C(=O)Cc3ccccc3)C3CCCC23)c(C)cc1OCC(=O)O (stereo not drawn) | > 6.25 µg/mL | 24% | –
7 | COc1cc(C2=NN(C(=O)COc3cccc4ccccc34)C3CCCC23)c(C)cc1OCC(=O)O (stereo not drawn) | > 6.25 µg/mL | 50% | –
8 | COc1cc(C2=NN(C(=O)COc3cccc4ccccc34)C(c3ccc(O)cc3)C2)c(C)cc1OCC(=O)O (stereo not drawn) | > 6.25 µg/mL | 58% | –
9 | COc1cc(C2=NN(C(=O)COc3ccccc3)C(c3ccc(O)cc3)C2)c(C)cc1OCC(=O)O (stereo not drawn) | 0.64 µg/mL (≈ 1.3 µM) | – | 99%
10 | COc1cc(C2=NN(C(=O)COc3ccccc3)C(Cc3ccccc3)C2)c(C)cc1OCC(=O)O (stereo not drawn) | > 6.25 µg/mL | – | 92%
11 | COc1cc(C2=NN(C(=O)Cc3ccccc3)C(Cc3ccccc3)C2)c(C)cc1OCC(=O)O (stereo not drawn) | > 6.25 µg/mL | 34% | –
12 | COc1cc(C2=NN(C(=O)COc3ccc4ccccc4c3)C3CCCC23)c(C)cc1OCC(=O)O (stereo not drawn) | 6.25 µg/mL (≈ 12.8 µM) | 94% | –
13 | COc1cc(C2=NN(C(=O)COc3ccc4ccccc4c3)C(c3ccc(O)cc3)C2)c(C)cc1OCC(=O)O (stereo not drawn) | 0.7 µg/mL (≈ 1.29 µM) | – | 99%
14 | COc1cc(C2=NN(C(=O)c3ccccc3)C(c3ccc(O)cc3)C2)c(C)cc1OCC(=O)O (stereo not drawn) | > 6.25 µg/mL | 72% | –
15 | COc1cc(C2=NN(C(=O)COc3cccc4ccccc34)C(Cc3ccccc3)C2)c(C)cc1OCC(=O)O (stereo not drawn) | > 6.25 µg/mL | 20% | –
16 | COc1cc(C2=NN(C(=O)Cc3ccccc3)C(c3ccc(O)cc3)C2)c(C)cc1OCC(=O)O (stereo not drawn) | > 6.25 µg/mL | 22% | –
17 | COc1cc(C2=NN(C(=O)c3ccccc3)C(Cc3ccccc3)C2)c(C)cc1OCC(=O)O (stereo not drawn) | > 6.25 µg/mL | 18% | –
18 | COc1cc(C2=NN(C(=O)COc3ccccc3)C3CCCC23)c(C)cc1OCC(=O)O (stereo not drawn) | > 6.25 µg/mL | 85% | –
19 | NNC(=O)c1ccncc1 [ISONIAZID] | 1.56 µg/mL (≈ 11.4 µM) | – | 90%
